Data reported in patent publication US20220313698A1, “MODULATORS OF CYSTIC FIBROSIS TRANSMEMBRANE CONDUCTANCE REGULATOR” (Vertex Pharmaceuticals Incorporated, priority 2019, published 2022).

Biological target: CFTR-mediated chloride transport (Homo sapiens, UniProt P13569)
Assay: Corrector Assay A - membrane potential dye assay (enteroid cells)
Conditions: for Corrector Assay A % activity: % of chloride transport of triple combination control (1 μM (14S)-dispiro macrocycle + 3 μM tezacaftor + 300 nM ivacaftor); for EC50: read-out: Corrector Assay A EC50, human intestinal enteroid cells, 18-24 h incubation, acute 10 μM forskolin + 300 nM ivacaftor

CC(C)(C)c1ccnc([C@@H]2CC[C@@H]3CN(c4nc5ccccc5cc4C(=O)NS(=O)(=O)c4cccc(n4)N2)C(C)(C)C3)c1 (single isomer, unassigned) [Compound 10]
Corrector Assay A % activity: ++ (++ is 30-60%)
EC50: < 1000 nM

CC(C)(C)c1ccc2c(n1)N1C[C@@H](CCC(C3CCNCC3)Nc3cccc(n3)S(=O)(=O)NC2=O)CC1(C)C (single isomer, unassigned) [Compound 249]
Corrector Assay A % activity: ++ (++ is 30-60%)
EC50: > 3000 nM

Cc1ccc2nc3c(cc2c1)C(=O)NS(=O)(=O)c1cccc(n1)N[C@H](c1cc(C(C)(C)C)ccn1)CC[C@@H]1CN3C(C)(C)C1 (single isomer, unassigned) [Compound 6]
Corrector Assay A % activity: ++ (++ is 30-60%)
EC50: < 1000 nM

CC(C)(C)c1ccc2c(n1)N1C[C@@H](CCC(c3cc(C4COC4)ccn3)Nc3cccc(n3)S(=O)(=O)NC2=O)CC1(C)C (single isomer, unassigned) [Compound 25]
Corrector Assay A % activity: +++ (+++ is >60%)
EC50: < 1000 nM

CC1(C)C[C@@H]2CC[C@@H](c3ccccn3)Nc3cccc(n3)S(=O)(=O)NC(=O)c3ccc(-c4c(F)cccc4Cl)nc3N1C2 [Compound 344]
Corrector Assay A % activity: ++ (++ is 30-60%)
EC50: < 1000 nM

CC(C)c1ccc(-c2ccc3c(n2)N2C[C@@H](CC[C@@H](c4ccccn4)Nc4cccc(n4)S(=O)(=O)NC3=O)CC2(C)C)cc1 [Compound 348]
Corrector Assay A % activity: ++ (++ is 30-60%)
EC50: < 1000 nM

CC1(C)CC(C2CC[C@@H]3CN(c4nc(C(C)(C)C)ccc4C(=O)NS(=O)(=O)c4cccc(n4)N2)C(C)(C)C3)CC(C)(C)O1 (single isomer, unassigned) [Compound 42]
Corrector Assay A % activity: ++ (++ is 30-60%)
EC50: < 1000 nM

CC(O)CC1CC[C@@H]2CN(c3nc(C(C)(C)C)ccc3C(=O)NS(=O)(=O)c3cccc(n3)N1)C(C)(C)C2 (single isomer, unassigned) [Compound 20]
Corrector Assay A % activity: ++ (++ is 30-60%)
EC50: < 1000 nM

CC(C)C1CC[C@@H]2CN(c3nc(-n4ccc(OCCC5(C(F)(F)F)CC5)n4)ccc3C(=O)NS(=O)(=O)c3cccc(n3)N1)C(C)(C)C2 (single isomer, unassigned) [Compound 357]
Corrector Assay A % activity: +++ (+++ is >60%)
EC50: < 1000 nM

CC(C)(C)c1ccc2c(n1)N1C[C@@H](CC[C@@H](c3cccc(C#N)n3)Nc3cccc(n3)S(=O)(=O)NC2=O)CC1(C)C [Compound 210]
Corrector Assay A % activity: ++ (++ is 30-60%)
EC50: < 1000 nM

CC(C)(C)c1ccc2c(n1)N1C[C@@H](CCC(c3ccc(C4CCNCC4)cn3)Nc3cccc(n3)S(=O)(=O)NC2=O)CC1(C)C (stereo partly drawn) [Compound 154, (14S)-8-tert-Butyl-12,12-dimethyl-17-[5-(piperidin-4-yl)pyridin-2-yl]-2λ^6-thia-3,9,11,18,23-pentaazatetracyclo[17.3.1.111,14.05,10]tetracosa-1(23),5(10),6,8,19,21-hexaene-2,2,4-trione]
Corrector Assay A % activity: +++ (+++ is >60%)
EC50: < 1000 nM

CC1(C)CC(C2CC[C@@H]3CN(c4nc(C(C)(C)C)ccc4C(=O)NS(=O)(=O)c4cccc(n4)N2)C(C)(C)C3)CC(C)(C)O1 (single isomer, unassigned) [Compound 43]
Corrector Assay A % activity: + (+ is <30%)

CC(C)(C)c1ccc2c(n1)N1C[C@@H](CC[C@@H](C3CCOCC3)Nc3cccc(n3)S(=O)(=O)NC2=O)CC1(C)C (single isomer, unassigned) [Compound 268]
Corrector Assay A % activity: +++ (+++ is >60%)
EC50: < 1000 nM

CC(C)(C)c1ccc2c(n1)N1C[C@@H](CCC(c3ccc(C#N)cn3)Nc3cccc(n3)S(=O)(=O)NC2=O)CC1(C)C (single isomer, unassigned) [Compound 205]
Corrector Assay A % activity: +++ (+++ is >60%)
EC50: < 1000 nM

CC(C)O[C@H]1C[C@@H](Oc2ccc3c(n2)N2C[C@@H](CC[C@H](c4ccccn4)Nc4cccc(n4)S(=O)(=O)NC3=O)CC2(C)C)C1 [Compound 161, (14S,17R)-12,12-dimethyl-17-(pyridin-2-yl)-8-[(1s,3S)-3-(propan-2-yloxy)cyclobutoxy]-2λ^6-thia-3,9,11,18,23-pentaazatetracyclo[17.3.1.111,14.05,10]tetracosa-1(22),5,7,9,19(23),20-hexaene-2,2,4-trione]
Corrector Assay A % activity: +++ (+++ is >60%)
EC50: < 1000 nM

CC(C)(C)c1ccc2c(n1)N1C[C@@H](CCC(C(=O)NC3CC4(CCNCC4)C3)Nc3cccc(n3)S(=O)(=O)NC2=O)CC1(C)C (single isomer, unassigned) [Compound 222]
Corrector Assay A % activity: ++ (++ is 30-60%)
EC50: > 3000 nM

CC(C)C1CC[C@@H]2CN(c3nc(C(C)(C)C)ccc3C(=O)NS(=O)(=O)c3cccc(n3)N1)C(C)(C)C2 (single isomer, unassigned) [Compound 287]
Corrector Assay A % activity: +++ (+++ is >60%)
EC50: < 1000 nM

CC(O)CC1CC[C@@H]2CN(c3nc(C(C)(C)C)ccc3C(=O)NS(=O)(=O)c3cccc(n3)N1)C(C)(C)C2 (single isomer, unassigned) [Compound 22]
Corrector Assay A % activity: ++ (++ is 30-60%)
EC50: < 1000 nM

COC(=O)NCc1ccc(C2CC[C@@H]3CN(c4nc(C(C)(C)C)ccc4C(=O)NS(=O)(=O)c4cccc(n4)N2)C(C)(C)C3)nc1 (stereo partly drawn) [Compound 88]
Corrector Assay A % activity: +++ (+++ is >60%)
EC50: < 1000 nM

Cn1cc(C2CC[C@@H]3CN(c4nc(C(C)(C)C)ccc4C(=O)NS(=O)(=O)c4cccc(n4)N2)C(C)(C)C3)cn1 (single isomer, unassigned) [Compound 281]
Corrector Assay A % activity: +++ (+++ is >60%)
EC50: < 1000 nM

COCCc1ccc(C2CC[C@@H]3CN(c4nc(C(C)(C)C)ccc4C(=O)NS(=O)(=O)c4cccc(n4)N2)C(C)(C)C3)nc1 (stereo partly drawn) [Compound 112]
Corrector Assay A % activity: ++ (++ is 30-60%)
EC50: < 1000 nM

COC(=O)N1CCC(c2ccnc(C3CC[C@@H]4CN(c5nc(C(C)(C)C)ccc5C(=O)NS(=O)(=O)c5cccc(n5)N3)C(C)(C)C4)c2)CC1 (stereo partly drawn) [Compound 96, methyl 4-{2-[(14S)-8-tert-butyl-12,12-dimethyl-2,2,4-trioxo-2λ^6-thia-3,9,11,18,23-pentaazatetracyclo[17.3.1.111,14.05,10]tetracosa-1(23),5(10),6,8,19,21-hexaen-17-yl]pyridin-4-yl}piperidine-1-carboxylate]
Corrector Assay A % activity: +++ (+++ is >60%)
EC50: < 1000 nM

CC(C)(C)c1ccc2c(n1)N1C[C@@H](CC[C@@H](C3CCOCC3)Nc3cccc(n3)S(=O)(=O)NC2=O)CC1(C)C (single isomer, unassigned) [Compound 269]
Corrector Assay A % activity: ++ (++ is 30-60%)
EC50: < 1000 nM

CC(C)(C)c1ccc2c(n1)N1C[C@@H](CCC(c3cc(Br)ccn3)Nc3cccc(n3)S(=O)(=O)NC2=O)CC1(C)C (single isomer, unassigned) [Compound 46]
Corrector Assay A % activity: +++ (+++ is >60%)
EC50: < 1000 nM

Cc1cccc(C)c1[C@@H]1CC[C@@H]2CN(c3nc(C(C)(C)C)ccc3C(=O)NS(=O)(=O)c3cccc(n3)N1)C(C)(C)C2 (single isomer, unassigned) [Compound 243]
Corrector Assay A % activity: +++ (+++ is >60%)
EC50: < 1000 nM

CC(C)(C)c1ccc2c(n1)N1C[C@@H](CC[C@@H](c3cccc(CN)n3)Nc3cccc(n3)S(=O)(=O)NC2=O)CC1(C)C [Compound 202]
Corrector Assay A % activity: ++ (++ is 30-60%)
EC50: < 1000 nM

CC1(C)C[C@@H]2CC[C@H](c3ccccn3)Nc3cccc(n3)S(=O)(=O)NC(=O)c3ccc(N4CCN(CC5CC5)C4=O)nc3N1C2 [Compound 331]
Corrector Assay A % activity: +++ (+++ is >60%)
EC50: < 1000 nM

Cn1nccc1-c1ccc(C2CC[C@@H]3CN(c4nc(C(C)(C)C)ccc4C(=O)NS(=O)(=O)c4cccc(n4)N2)C(C)(C)C3)nc1 (stereo partly drawn) [Compound 58]
Corrector Assay A % activity: +++ (+++ is >60%)
EC50: < 1000 nM

Cc1ccc2cc3c(nc2c1)N1C[C@@H](CC[C@@H](c2cc(C(C)(C)C)ccn2)Nc2cccc(n2)S(=O)(=O)NC3=O)CC1(C)C (single isomer, unassigned) [Compound 7]
Corrector Assay A % activity: +++ (+++ is >60%)
EC50: < 1000 nM

CC(C)(C)c1ccc2c(n1)N1C[C@@H](CC[C@@H](c3cccc(N4CCOCC4)n3)Nc3cccc(n3)S(=O)(=O)NC2=O)CC1(C)C [Compound 190]
Corrector Assay A % activity: ++ (++ is 30-60%)
EC50: < 1000 nM

CC(C)(C)c1ccc2c(n1)N1C[C@@H](CC[C@@H](c3ccncn3)Nc3cccc(n3)S(=O)(=O)NC2=O)CC1(C)C (single isomer, unassigned) [Compound 217]
Corrector Assay A % activity: ++ (++ is 30-60%)
EC50: < 1000 nM

Cn1ccc(C2CC[C@@H]3CN(c4nc(C(C)(C)C)ccc4C(=O)NS(=O)(=O)c4cccc(n4)N2)C(C)(C)C3)n1 (single isomer, unassigned) [Compound 279]
Corrector Assay A % activity: +++ (+++ is >60%)
EC50: < 1000 nM

CC(C)(C)c1ccc2c(n1)N1C[C@@H](CCC(c3ccccc3)n3ccc(n3)S(=O)(=O)NC2=O)CC1(C)C (single isomer, unassigned) [Compound 275]
Corrector Assay A % activity: ++ (++ is 30-60%)
EC50: < 1000 nM

CC(C)(C)OC(=O)N1CCC(c2ccnc(C3CC[C@@H]4CN(c5nc(C(C)(C)C)ccc5C(=O)NS(=O)(=O)c5cccc(n5)N3)C(C)(C)C4)c2)CC1 (stereo partly drawn) [Compound 117, tert-butyl 4-{2-[(14S)-8-tert-butyl-12,12-dimethyl-2,2,4-trioxo-2λ^6-thia-3,9,11,18,23-pentaazatetracyclo[17.3.1.111,14.05,10]tetracosa-1(23),5(10),6,8,19,21-hexaen-17-yl]pyridin-4-yl}piperidine-1-carboxylate]
Corrector Assay A % activity: +++ (+++ is >60%)
EC50: < 1000 nM

CC(C)(C)c1ccc2c(n1)N1C[C@@H](CC[C@@H](c3cccc(C4CCOCC4)n3)Nc3cccc(n3)S(=O)(=O)NC2=O)CC1(C)C [Compound 147]
Corrector Assay A % activity: + (+ is <30%)
EC50: > 3000 nM
